Source: US6365628B1 (Thia Medica AS, priority 1998, dated 2002)

How the values were obtained:
[1] = test system: male Wistar rats; experiment: Body weight of male Wistar rats after 12 weeks of treatment (Example 6); assay type: in vivo, rat; conditions: oral TTA
Procedure: 2 groups of 6 male Wistar Rats were randomly selected, and studied for weight development over a period of 12 week. The body weight of each Wistar rat was measured at the start of the experiment. All animals in both groups received individually the same amount of food (nutrition) during the experimental period of 12 weeks. All animals in one of the groups were orally administrated with the medicament comprising TTA. The other group was the control group (CMC). After the 12 week period the body weight of rats were measured again.

[2] = test system: male dogs; experiment: Body weights of male dogs treated for 4 weeks (Example 10); assay type: in vivo, dog; conditions: 500 mg/kg/day orally in capsules
Procedure: 3 male dogs (4-6 months old) were housed singly during the days. Each animal was offered 400 g of SQC Diet A each morning after dosing and any residue diet was removed in the afternoon. The drug was administered orally in capsules once daily for 28 days.

[3] = test system: high fat diet fed Wistar Charles River rats; experiment: High fat diet with or without TTA for three weeks, adipose tissue weights (Example 5); assay type: in vivo, rat; conditions: high fat diet + 0.4% TTA for three weeks, mean ± SEM
Procedure: Male Wistar Charles River rats weighing 280-358 grams were purchased from AnLab Ltd. (Prague, Czech Republic) and housed in wire-mesh cages in a temperature (22±1° C.) and light-controlled (light from 7:00 a.m. to 7:00 p.m.) room. They were given free access to chow and water. Three rats were housed per cage. Weight gain and food intake were recorded daily.
High Fat (HF): 1.9% gelatin, 5.7% wheat bran, 7.7% vitamins and minerals, 25.4% corn starch, 25.7% casein, 26.8% beef tallow and 7.1% sunflower oil.
HF+TTA: Same+0.4% TTA dissolved in the beef tallow.
Male Wistar Charles River rats (280-360 g) were fed 3 different diets (see methods) for 3 weeks ad libitum. Afterwards, they were killed by decapitation, liver and epididymal adipose tissue pads were dissected out and weighed.
Feeding the Wistar rats the high fat diet thus increased the epididymal and retroperitoneal fad pad weight.

[4] = test system: chinese hamster ovary cells; experiment: Chromosomal aberrations in cultured chinese hamster ovary cells; assay type: cell-based; conditions: doses tested 12-140 mg/ml
[5] = test system: dogs; experiment: 28 days toxicity study in dogs (GLP), oral TTA; assay type: in vivo, dog
Source text: A 28 days toxicity study in dogs according to GLP guide-lines has been performed by Corning Hazleton (Europe), England. […] Some lipid related parameters were lowered in the animals given high dosages. This is consistent with the pharmacological activity of TTA.

[6] = target: T1, PPARγ (Homo sapiens, UniProt P37231); experiment: Ligand of PPARγ; assay type: binding
T1 sequence (P37231 1-505): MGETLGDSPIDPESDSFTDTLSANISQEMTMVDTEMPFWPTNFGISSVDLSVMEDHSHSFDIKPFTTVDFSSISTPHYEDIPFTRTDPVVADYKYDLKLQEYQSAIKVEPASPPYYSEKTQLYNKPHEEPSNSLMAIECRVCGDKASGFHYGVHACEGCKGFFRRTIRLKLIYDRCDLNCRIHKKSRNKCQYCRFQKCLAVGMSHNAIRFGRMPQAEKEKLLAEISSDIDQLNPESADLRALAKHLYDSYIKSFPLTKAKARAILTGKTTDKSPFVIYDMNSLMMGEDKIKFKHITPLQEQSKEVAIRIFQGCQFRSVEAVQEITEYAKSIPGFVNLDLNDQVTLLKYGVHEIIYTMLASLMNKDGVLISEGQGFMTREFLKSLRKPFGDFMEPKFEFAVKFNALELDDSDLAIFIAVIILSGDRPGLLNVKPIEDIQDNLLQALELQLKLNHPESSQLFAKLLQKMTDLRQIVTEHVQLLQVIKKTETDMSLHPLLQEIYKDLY

[7] = test system: Wistar rats; experiment: Lipid lowering effect in normal Wistar rats (Example 4); assay type: in vivo, rat; conditions: gavage once daily for 7 days, dose 150 mg/day/kg body weight
Procedure: Phospholipids were measured by the enzymatic method of bioMérieux, Marcy-l {grave over ( )}Etoile, France, Triacylglycerol by the Technicon Method no. SA4-0324L90, USA and Cholesterol by the Technicon Method no. SA4-0305L90, USA.
Male Wistar rats, weighing 180-200 g at the start of the experiment, were housed individually in metal wire cages in a room maintained at 12 h light-dark cycles and a constant temperature of 20±3° C. The animals were acclimatised for one week under these conditions before the start of the experiments.
TTA, TSA and eicosapentaenoic acid (EPA) were suspended in 0.5% (w/v) carboxymethyl cellulose (CMC). Six animals were used for each treatment, and a 0.5% CMC solution was administrated to the rats as control. After administration of the test compound, the rats were fasted for 12 hours and anaesthetised with haloethan. The EPA and the fatty acid derivatives were administered by gastric intubation (gavage) once daily for 7 days. Blood samples were collected by cardiac puncture, and lipid concentrations in plasma were determined as outlined in the method section.

[8] = target: T2, PPARα (Homo sapiens, UniProt Q07869); experiment: Ligand of PPARα; assay type: binding
T2 sequence (Q07869 1-468): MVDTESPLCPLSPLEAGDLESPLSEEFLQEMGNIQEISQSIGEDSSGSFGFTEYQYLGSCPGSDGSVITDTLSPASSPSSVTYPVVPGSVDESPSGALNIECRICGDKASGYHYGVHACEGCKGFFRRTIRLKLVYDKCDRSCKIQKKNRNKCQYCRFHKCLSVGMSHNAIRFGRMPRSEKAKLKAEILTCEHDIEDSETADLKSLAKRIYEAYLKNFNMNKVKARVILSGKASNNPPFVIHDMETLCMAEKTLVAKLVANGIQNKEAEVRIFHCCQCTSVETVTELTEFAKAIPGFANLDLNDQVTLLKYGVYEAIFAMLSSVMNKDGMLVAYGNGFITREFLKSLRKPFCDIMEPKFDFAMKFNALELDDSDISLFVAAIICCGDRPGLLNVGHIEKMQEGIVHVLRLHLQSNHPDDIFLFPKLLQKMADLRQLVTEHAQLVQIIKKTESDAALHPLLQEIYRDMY

[9] = test system: mouse lymphoma cells, L5178Y; experiment: Mutagenicity test in mouse lymphoma cells L5178Y; assay type: cell-based; conditions: 2.5-50 mg/ml
Source text: Tests for mutagenic activity have been performed by Covance Laboratories Limited, England. […] Furthermore, TTA was not mutagenic when tested in mouse lymphoma cells […] L5178Y.

## Tetradecylthioacetic acid [TTA]
[1]
  Body weight gain/grams: 234 ± 20 grams
[2]; week 0
  Mean body weight (kg): 9,22 ± 1,77 kg
[2]; week 1
  Mean body weight (kg): 8,95 kg
[2]; week 2
  Mean body weight (kg): 8,75 ± 1,58 kg
[2]; week 3
  Mean body weight (kg): 8,58 kg
[2]; week 4
  Mean body weight (kg): 8,50 ± 1,74 kg
[3]
  Epididymal adipose tissue: 3.1 ± 0.2 g
  Epididymal adipose tissue/body weight (%): 1.0 ± 0.1%
  Retroperitoneal adipose tissue: 2.7 ± 0.2 g
  Retroperitoneal adipose tissue/body weight (%): 0.8 ± 0.05%
[4]
  Chromosomal aberrations in cultured chinese hamster ovary cells: no aberrations were induced
[5]; 500 mg/kg/day
  Effect on body weight: body weight loss
[5]; dose levels of 50 or 500 mg/day/kg
  Evidence of toxicity: no evidence of toxicity
[5]; dose levels up to 500 mg/kg/day
  Tolerability of oral administration: generally well tolerated
[6]
  Ligand of PPARγ: less potent ligand
[7]
  Plasma lipids (% reduction of control) cholesterol: 30 % reduction of control
  Plasma lipids (% reduction of control) triglycerides: 45 % reduction of control
[8]
  Ligand of PPARα: potent ligand
[9]
  Mutagenicity in mouse lymphoma cells L5178Y: not mutagenic
